Measured values as given in ChEMBL document CHEMBL1201862, “PubChem BioAssay data set” (2004).
The source made the active and inactive calls.

What was measured:
[1] = HEp-2 cell cytotoxicity, dose response, cytotoxicity control for RSV inhibitor project, HTS (AID 2410); type: functional; details: human respiratory syncytial virus
[2] = biological target: Disintegrin and metalloproteinase domain-containing protein 17 (Homo sapiens, UniProt P78536); assay: exosite inhibitors of ADAM17, dose response, biochemical (AID 743260)
Disintegrin and metalloproteinase domain-containing protein 17, sequence (P78536 whole entry, the tested form may be a part): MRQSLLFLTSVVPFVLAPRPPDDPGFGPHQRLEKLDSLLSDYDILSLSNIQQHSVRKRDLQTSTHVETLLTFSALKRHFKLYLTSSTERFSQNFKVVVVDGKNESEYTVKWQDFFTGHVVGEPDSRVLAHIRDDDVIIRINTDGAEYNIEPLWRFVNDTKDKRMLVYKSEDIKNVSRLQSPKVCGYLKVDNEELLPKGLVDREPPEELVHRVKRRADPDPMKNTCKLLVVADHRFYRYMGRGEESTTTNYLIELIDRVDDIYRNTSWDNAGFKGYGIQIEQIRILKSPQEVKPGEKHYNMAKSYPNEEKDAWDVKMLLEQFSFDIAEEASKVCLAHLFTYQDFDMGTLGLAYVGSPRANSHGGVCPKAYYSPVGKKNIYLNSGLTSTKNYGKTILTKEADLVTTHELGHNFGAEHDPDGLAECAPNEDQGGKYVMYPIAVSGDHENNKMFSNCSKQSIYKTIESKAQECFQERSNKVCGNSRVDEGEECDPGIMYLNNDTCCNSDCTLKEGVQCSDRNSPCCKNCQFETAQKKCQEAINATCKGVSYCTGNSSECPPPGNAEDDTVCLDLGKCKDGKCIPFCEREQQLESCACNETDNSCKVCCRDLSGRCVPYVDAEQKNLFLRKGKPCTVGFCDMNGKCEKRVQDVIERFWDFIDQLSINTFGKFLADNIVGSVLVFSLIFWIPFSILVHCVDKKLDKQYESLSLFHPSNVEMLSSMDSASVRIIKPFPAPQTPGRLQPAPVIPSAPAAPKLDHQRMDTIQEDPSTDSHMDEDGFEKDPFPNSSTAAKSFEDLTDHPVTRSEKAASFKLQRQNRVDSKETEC

[3] = ADAM10 protease inhibitors, dose response, selectivity assay for ADAM17 exosite inhibitor project, biochemical, FRET peptide substrate, recombinant human ADAM10 (AID 743259);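 note: ADAM10 enzyme cleaving a FRET peptide substrate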
Vero = assay: Vero cell toxicity, dose response, cytotoxicity control, plate reader, cherry-pick samples (AID 687020); type: functional, cell-based; details: Chlorocebus sabaeus
Transthyretin = Transthyretin (Homo sapiens, UniProt P02766); assay: Luminescence-based cell-based high throughput dose response assay to identify activators of Transthyretin (TTR) transcription.; type: functional
[4] = off-target signal loss in HeLa-CEM21 co-culture – HeLa F-luc CTL cells, cherry-picked, counter-screen for HIV-1 Env fusion inhibitor project, dose response (AID 652040); type: functional, cell-based;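 note: potency for signal decrease marking cytotoxic or nonspecific inhibition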
[5] = ZM109 Env clade C HIV-1 fusion inhibitors, dose response, HeLa effector, CEM target cells, luciferase, cherry-pick (AID 652058); type: functional, cell-based
[6] = CEM21 lymphoblast cell cytotoxicity, dose response, cytotoxicity control for viral fusion inhibitor project, CellTiter-Glo luminescence, cherry-picked (AID 652042); type: functional, cell-based;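 note: potency for signal decrease meaning cytotoxicity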
[7] = Luminescence Cell-Based Dose Retest to Confirm Inhibitors of Cancer Stem Cells. [Related pubchem assays (depositor defined):AID2717, AID2721]; type: functional; details: Homo sapiens
[8] = inhibitors of HIV Env-driven cell fusion, dose response, cherry-pick (AID 652057); type: functional, cell-based
[9] = inhibitors of clade B AD8 Env fusion, dose response, cell-based, cherry-pick (AID 652062); type: functional;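 note: luciferase signal from cell-cell fusion driven by HIV-1 clade B AD8 Env; potency is for inhibitors of fusion seen as a drop in luminescence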
[10] = biological target: T1, Sentrin-specific protease 1 (Homo sapiens, UniProt Q9P0U3); assay: Dose response confirmation of small molecule inhibitors of the catalytic domain of the SUMO protease, SENP1 in a FRET assay.; type: functional; details: read-out: IC50_Mean
T1 sequence (Q9P0U3 whole entry): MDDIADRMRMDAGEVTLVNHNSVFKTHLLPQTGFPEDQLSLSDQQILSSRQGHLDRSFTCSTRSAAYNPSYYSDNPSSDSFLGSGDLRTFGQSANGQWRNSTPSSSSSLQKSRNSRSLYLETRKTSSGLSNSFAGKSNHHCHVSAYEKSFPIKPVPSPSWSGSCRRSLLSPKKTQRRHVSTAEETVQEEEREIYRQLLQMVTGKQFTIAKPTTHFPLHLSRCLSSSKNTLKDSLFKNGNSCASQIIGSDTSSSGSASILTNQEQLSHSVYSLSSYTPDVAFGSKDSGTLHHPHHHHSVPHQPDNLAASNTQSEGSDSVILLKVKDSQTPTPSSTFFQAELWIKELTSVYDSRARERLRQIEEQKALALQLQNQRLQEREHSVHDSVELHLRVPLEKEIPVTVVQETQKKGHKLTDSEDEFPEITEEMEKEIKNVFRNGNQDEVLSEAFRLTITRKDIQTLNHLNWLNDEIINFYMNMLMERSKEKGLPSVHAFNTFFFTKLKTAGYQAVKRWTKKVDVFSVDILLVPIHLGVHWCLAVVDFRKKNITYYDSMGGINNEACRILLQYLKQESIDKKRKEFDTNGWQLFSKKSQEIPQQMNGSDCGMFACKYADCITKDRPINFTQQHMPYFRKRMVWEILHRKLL

[11] = biological target: T1, Sentrin-specific protease 1; assay: potency of human SENP1 inhibitors, dose response, biochemical, kinetic FRET (AID 651697); type: functional; details: read-out: IC50_Mean
[12] = biological target: Dual specificity tyrosine-phosphorylation-regulated kinase 1A (Rattus norvegicus, UniProt Q63470); type: biochemical, Homo sapiens
[13] = P. falciparum Dd2 growth inhibitors, dose response, SYBR Green, cherry-picked samples (AID 1159567); type: functional, cell-based
[14] = non-specific cell cytotoxicity, dose response, cytotoxicity control for PAX8 inhibitor project, plate reader, dry powder samples (AID 743021); type: functional, cell-based
[15] = HepG2 cell cytotoxicity, dose response, cytotoxicity control, cherry-picked samples (AID 1159577); type: functional, cell-based
[16] = IGROV1 ovarian cancer cell cytotoxicity, dose response, PAX8 inhibitor project, plate reader, dry powder samples (AID 743043); type: functional, cell-based; details: IGROV-1
[17] = NIH:OVCAR-3 ovarian cancer cell cytotoxicity, dose response, PAX8 inhibitor project, plate reader, dry powder samples (AID 743044); type: functional, cell-based
[18] = A2780 ovarian cancer cell cytotoxicity, dose response, cytotoxicity control, plate reader, dry powder samples (AID 743046); type: functional, cell-based
[19] = IOSE-T80 ovarian epithelial cell cytotoxicity, dose response, cytotoxicity control for PAX8 inhibitor project, plate reader, dry powder samples (AID 743045); type: functional, cell-based
[20] = cytotoxicity in OVCAR8 ovarian cancer cells, dose response, PAX8 project, cell-based, plate reader, dry powder samples (AID 743197); type: functional; details: OVCAR-8
Paired box protein Pax-8 = Paired box protein Pax-8 (Homo sapiens, UniProt Q06710); assay: inhibitors of PAX8-driven TPO luciferase reporter, dose response, RMG-I cells, cherry-pick (AID 687027); type: functional, cell-based;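 note: luciferase reporter driven by Pax8 target thyroperoxidase promoter measured by SteadyGlo luminescence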
Paired box protein Pax-8, sequence (Q06710 whole entry): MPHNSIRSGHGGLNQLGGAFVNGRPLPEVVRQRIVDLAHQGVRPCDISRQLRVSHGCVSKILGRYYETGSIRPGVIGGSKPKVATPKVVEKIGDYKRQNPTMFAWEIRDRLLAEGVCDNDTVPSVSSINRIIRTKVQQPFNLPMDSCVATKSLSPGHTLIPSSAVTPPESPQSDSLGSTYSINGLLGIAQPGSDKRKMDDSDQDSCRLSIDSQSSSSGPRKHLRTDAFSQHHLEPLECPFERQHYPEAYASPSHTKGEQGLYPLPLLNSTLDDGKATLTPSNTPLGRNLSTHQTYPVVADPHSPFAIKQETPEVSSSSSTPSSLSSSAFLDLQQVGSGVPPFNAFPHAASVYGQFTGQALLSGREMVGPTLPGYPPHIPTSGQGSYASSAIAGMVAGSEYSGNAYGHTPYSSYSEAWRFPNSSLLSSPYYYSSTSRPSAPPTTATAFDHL

[21] = A375 melanoma cell viability loss, dose response, counter-screen for MITF inhibitor project, CellTiter-Glo luminescence, dry powder, set 4 (AID 624364); type: functional, cell-based; details: A-375;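 note: A375 melanoma cells are MITF independent so this is a counter screen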
[22] = A375 melanoma cell cytotoxicity, dose response, counter-screen for MITF inhibitor project, CellTiter-Glo luminescence, dry powder, set 2 (AID 624489); type: functional, cell-based; details: A-375;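 note: actives are compounds lowering A375 viability meaning general cytotoxicity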

CCOc1cc2c3c(c1)C1(C(=O)N3C(C)(C)C=C2C)C(C#N)=C(N)Oc2cc(O)ccc21 (configuration not stated)
CC50 [1]: 11.8 µM (active) | IC50 [2]: > 69.5 µM (inactive) | IC50 [3]: > 69.5 µM (inactive)

CSc1ccc(S(=O)(=O)NC2CC3CCC2C3)cc1 (configuration not stated)
AC50 (Vero): 16.8 µM (active)

Cc1ccc(Nc2c3c(nc4ncnn24)CCC3)cc1
EC50 (Transthyretin): > 167 µM (inactive)

Cc1nn(Cc2ccc(Cl)c(Cl)c2)c(C)c1NC(=O)c1cc(-c2ccc3c(c2)OCO3)on1
AC50 [4]: > 70 µM (inactive) | AC50 [5]: 28.7 µM (active) | AC50 [6]: 20.6 µM (active) | AC50 [7]: 471 nM (active) | AC50 [8]: 20.3 µM (active) | AC50 [9]: 56 µM (active)

Cc1ccc2c(c1)C(=C(C#N)C#N)CCN2
IC50 [10]: 11 µM (active) | IC50 [11]: 20.1 µM (inactive) | AC50 [4]: 42.3 µM (active) | AC50 [5]: 2 µM (active) | AC50 [12]: 5.69 µM (active)

C(=C\c1ccc([C@H]2[C@@H]3CN(Cc4ccc5c(c4)OCO5)C[C@H]2N3)cc1)/c1ccccc1
AC50 [13]: 2.83 µM (active) | AC50 [14]: 31.7 µM (active) | AC50 [15]: 8.83 µM (active) | AC50 [16]: 18.8 µM (active) | AC50 [17]: 17.6 µM (active) | AC50 [18]: 12 µM (active) | AC50 [19]: 32.4 µM (active) | AC50 [20]: 35.1 µM (active) | AC50 (Paired box protein Pax-8): 20.2 µM (active)

O=C(NC1=C(c2ccccc2)C(=O)c2ccccc2C1=O)c1ccccc1
AC50 [21]: 47.5 µM (active) | AC50 [22]: 18.3 µM (active)

Cc1cccc(S(=O)(=O)N2CCCCN3[C@H](CO)[C@H](c4ccc(C#CC(C)C)cc4)[C@H]3C2)c1
AC50 [16]: 39.5 µM (active) | AC50 [17]: 9.65 µM (active) | AC50 [19]: 36.9 µM (active) | AC50 [20]: 28.4 µM (active) | AC50 (Paired box protein Pax-8): 9.99 µM (active)
